# Reference: patent publication US5914319A, “Antithrombotic agents” (Eli Lilly and Company, priority 1995, dated 1999)
# Where a name gives a salt, the structure may show the parent alone.
# Experiments:
# Type in all cases: biochemical
# Human plasma [1] = assay: Human plasma anticoagulation, activated partial thromboplastin time (APTT); conditions: concentration required to double the APTT, linear extrapolation
# Procedure: (§1) Dog plasma and rat plasma is obtained from conscious mixed-breed hounds (either sex, Hazelton-LRE, Kalamazoo, Mich., U.S.A.) or from anesthetized male Sprague-Dawley rats (Harlan Sprague-Dawley, Inc., Indianapolis, Ind., U.S.A.) by venipuncture into 3.8 percent citrate. Fibrinogen is prepared from in-date ACD human blood as the fraction I-2 according to previous procedures and specifications. […] Human fibrinogen is also purchased as 98 percent pure/plasmin free from American Diagnostica, Greenwich, Conn. Coagulation reagents ACTIN, Thromboplastin, and Human plasma are from Baxter Healthcare Corp., Dade Division, Miami, Fla. Bovine thrombin from Parke-Davis ([…], Mich.) is used for coagulation assays in plasma.
# (§2) Coagulation assay procedures are as previously described. […] A CoAScreener coagulation instrument (American LABor, Inc.) is used for all coagulation assay measurements. The prothrombin time (PT) is measured by adding 0.05 mL saline and 0.05 mL Thromboplastin-C reagent to 0.05 mL test plasma. The activated partial thromboplastin time (APTT) is measured by incubation of 0.05 mL test plasma with 0.05 mL Actin reagent for 120 seconds followed by 0.05 mL CaCl2 (0.02M). The thrombin time (TT) is measured by adding 0.05 mL saline and 0.05 mL thrombin (10 NIH units/mL) to 0.05 mL test plasma. The compounds of Formula I are added to human or animal plasma over a wide range of concentrations to determine prolongation effects on the APTT, PT, and TT assays. Linear extrapolations are performed to estimate the concentrations required to double the clotting time for each assay.
# Human plasma [2] = assay: Human plasma anticoagulation, prothrombin time (PT); conditions: concentration required to double the PT, linear extrapolation
# Procedure: as §1, §2
# Human plasma [3] = assay: Human plasma anticoagulation, thrombin time (TT); conditions: concentration required to double the thrombin time, linear extrapolation
# Procedure: as §1, §2
SMILES,Human Plasma Anticoagulation 2× Clotting time (ng/mL) APTT (Human plasma [1]),Human Plasma Anticoagulation 2× Clotting time (ng/mL) PT (Human plasma [2]),Human Plasma Anticoagulation 2× Clotting time (ng/mL) TT (Human plasma [3])
"CCS(=O)(=O)N[C@H](Cc1ccccc1)C(=O)N1CCC[C@H]1C(=O)NCCc1cccc(N=C(N)N)c1.Cl [Example 37, EtSO2 -D-Phe-Pro-m-NHCH2 CH2 C6 H4 NHC(NH)NH2.HCl]","> 9,000 ng/mL","> 9,000 ng/mL","> 9,000 ng/mL"
"Cl.N=C(N)c1ccc(CNC(=O)C2CC3CCCCC3N2C(=O)C(CC2CCCCC2)NCC(=O)O)cc1 [Example 49, HOOCCH2 -D-Cha-cis-Ohi-p-NHCH2 C6 H4 C(NH)NH2.HCl]",130 ng/mL,130 ng/mL,5 ng/mL
"Cl.N=C(N)c1cc(F)c(CNC(=O)[C@@H]2CCCN2C(=O)[C@@H](CC2CCCCC2)NCC(=O)O)c(F)c1 [Example 72, HO2 CCH2 -D-Cha-Pro-4-NHCH2 -3,5-F2 -benzamidine.HCl]",160 ng/mL,160 ng/mL,1 ng/mL
"N=C(N)Nc1ccc(CCNC(=O)[C@@H]2CCCN2C(=O)[C@@H]2NCC[C@@H]3CCCC[C@@H]32)cc1 [Example 39, D-1-Piq-Pro-p-NHCH2 CH2 C6 H4 NHC(NH)NH2.2HCl]","69,200 ng/mL","78,600 ng/mL","5,300 ng/mL"
"NCC1CCC(CNC(=O)[C@@H]2CCCN2C(=O)[C@@H](CC2CCCCC2)NCC(=O)O)CC1 (stereo partly drawn) [Example 79, HO2 CCH2 -D-Cha-Pro-4-NHCH2 C6 H10 CH2 NH2.HCl]","1,700 ng/mL","2,400 ng/mL",140 ng/mL
"CCS(=O)(=O)N[C@H](Cc1ccccc1)C(=O)N1CCC[C@H]1C(=O)NCCCc1cccc(C(=N)N)c1 [Example 31, EtSO2 -D-Phe-Pro-m-NHCH2 CH2 CH2 --C6 H4 C(=NH)NH2.HCl]","34,500 ng/mL","30,000 ng/mL","10,800 ng/mL"
"N=C(N)c1ccc(CNC(=O)[C@@H]2C[C@H](Oc3ccccc3)CN2C(=O)[C@H]2CCCCN2)cc1 (relative stereo) [Example 22, D-hPro-Pro(4-cis-PhO)-p-NHCH2 C6 H4 C(NH)NH2.2HCl]","2,300 ng/mL","1,000 ng/mL",170 ng/mL
"CCS(=O)(=O)N[C@H](Cc1ccccc1)C(=O)N1CCC[C@H]1C(=O)NCCc1ccc(C(=N)N)cc1 [Example 26, EtSO2 -D-Phe-Pro-p-NHCH2 CH2 --C6 H4 C(=NH)NH2.HCl]",870 ng/mL,750 ng/mL,37 ng/mL
"N=C(N)C1CCC(CNC(=O)[C@@H]2CCCN2C(=O)[C@@H](CC2CCCCC2)NCC(=O)O)NC1 (stereo partly drawn) [Example 67, HO2 CCH2 -D-Cha-Pro-2-NHCH2 -5-amidinopiperidine.HCl]","1,800 ng/mL","1,300 ng/mL",34. ng/mL
"CCC(CC)C(=O)N[C@@H](CCC(=O)O)C(=O)N1CCC[C@H]1C(=O)NCc1ccc(C(=N)N)cc1 [Example 90, (C2 H5)2 CHCO-Glu-Pro-p-NHCH2 C6 H4 C(NH)NH2.HCl]","14,500 ng/mL","14,600 ng/mL",330 ng/mL
"Nc1ccc(CNC(=O)[C@@H]2CCCN2C(=O)[C@@H](CC2CCCCC2)NCC(=O)O)cc1F [Example 77, HO2 CCH2 -D-Cha-Pro-4-NHCH2 -2-F-aniline.HCl]","1,600 ng/mL",890 ng/mL,53 ng/mL
